Experimental data as given in patent US20030215930A1, “Genes involved in cyclododecanone degradation pathway” (priority 2002, published 2003).

Experiments:
Rhodococcus ruber SC1 = assay: Growth of Rhodococcus ruber SC1 on cyclic ketones as sole carbon and energy source; assay type: cell-based; conditions: cyclic ketone as sole carbon and energy source
Experimental: Synthetic S12 medium was used to establish enrichment. S12 medium contains the following: 10 mM ammonium sulfate, 50 mM potassium phosphate buffer (pH 7.0), 2 mM MgCl2, 0.7 mM CaCl2, 50 μM MnCl2, 1 μM FeCl3, 1 μM […], 1.72 μM CuSO4, 2.53 μM CoCl2, 2.42 μM […], and 0.0001% FeSO4. The carbon sources were added directly to the S12 medium and the bacteria were grown in sealed culture flasks.
S12 agar was used to test isolates that utilize compounds as the sole source of carbon and energy. S12 agar was prepared by adding 1.5% Noble agar (DIFCO) to S12 medium. Bacteria growing on S12 agar were supplied with volatile compounds such as cyclododecanone by sprinkling solids of the volatile compound on the interior of the petri dish lid or 5 μl of other volatile liquid as vapor. The petri dish was sealed with parafilm and incubated with the lid on the bottom.
Rhodococcus ruber SC1 isolated from cyclododecanone (C12 cyclic ketone) enrichment culture was also tested for growth on cyclic ketones of different carbon numbers as sole carbon and energy source (Table 3). It grows well on cyclopentadecanone (C15 cyclic ketone), cyclotridecanone (C13 cyclic ketone), cyclododecanone (C12 cyclic ketone) and cycloundecanone (C11 cyclic ketone).

[1] = tested on: monooxygenase and esterase on the S8C; assay: Production of different chain length hydroxy acids from cyclic ketones by recombinant E. coli cosmid clone S8C (GC/MS); assay type: cell-based, Escherichia coli; conditions: cyclic ketone substrate at 250 mg/L
Experimental: Transformed XL1-Blue MR cells were grown in M9 medium with 0.4% glucose as sole carbon source. Substrate for conversion was added at early log phase (OD=0.2) and cells were allowed to grow at 30° C. for 20 additional hours. Cells were then frozen and thawed once, centrifiged, and supernatant was filtered through 0.2 μm filters. Filtrate was prepared for GC/MS analysis as described below.
Filtrate was first acidified to pH 2 using concentrated HCl. The acidified sample was extracted twice with methylene chloride or ethyl acetate. The extracts were combined and dried by adding anhydrous magnesium sulfate. Magnesium sulfate was then removed by filteration using Whatman 3MM filter paper and the remaining solvent in the filtrate was evaporated under a gentle stream of nitrogen. […]
Example 8 explores whether the cyclic substrates could be expanded to cyclic ketones of different chain length and whether corresponding hydroxy acids could be produced. […] Large amount of corresponding hydroxy acids were detected from S8C grown in the presence of C11, C12 and C13 cyclic ketones. Medium level of 15-hydroxy acid was detected from C15 cyclic ketone grown cells. Small amount of hydroxy acids was detected from cells grown on C6 and C10 cyclic ketones. […]

Row | SMILES | Growth of Rhodococcus ruber SC1 (Rhodococcus ruber SC1) | Corresponding Hydroxy Acid Produced by E. coli Cosmids [1]
1 | O=C1CCCCC1 [C6, cyclohexanone] | does not grow | Small amount
2 | O=C1CCCCCC1 [C7, cycloheptanone] | does not grow | 
3 | O=C1CCCCCCC1 [C8, cyclooctanone] | does not grow | 
4 | O=C1CCCCCCCCC1 [C10, cyclodecanone] | grows moderately well | Small amount
5 | O=C1CCCCCCCCCC1 [C11, cycloundecanone] | grows well | 
6 | O=C1CCCCCCCCCCC1 [C12, cyclododecanone] | grows well | 
7 | O=C1CCCCCCCCCCCC1 [C13, cyclotridecanone] | grows well | 
8 | O=C1CCCCCCCCCCCCCC1 [C15, cyclopentadecanone] | grows well | 
